Assay [1] deals with Staphylococcus aureus MU500. Format: cell-based. To be noted: remaining bacteria of experiment 12 proliferated and treated again; no irradiation. The protocol:
(§1) 15′000′000 multi-resistant bacteriae (0.050 ml of a McFarland of 1) were put on 40 mm diameter petri dishes. The petri dishes comprised MH agar with or without antibiotic.
(§2) The LED power during 0.02 ms was measured to be 0.63 W on a Thorlabs power sensor with a surface area of 2.2×2.2 mm representing a power of 13 mW/cm^2.
(§3) After the irradiation treatment according to experiment 12, remaining bacteria were allowed to proliferate and then were subject to the treatment according to experiment 12 again in order to test for possible new resistances to the treatment. The values in the following table are designated as in experiment 12: […]

In assay [2] the test system is Acinetobacter. It counts as cell-based. To be noted: remaining bacteria of experiment 12 proliferated and treated again. The protocol: as §1, §2, §3
Assay [3] has as its system MU50 multidrug-resistant Staphylococcus aureus strain (MRSA). Description: Minimum inhibitory concentration (MIC) on MU50. Format: cell-based. To be noted: Staphylococcus aureus, MRSA; overnight incubation; read-out: MIC. An excerpt: For some of the experimental tests MU50 bacteria were used. MU50 is a multidrug-resistant Staphylococcus aureus strain (MRSA). MRSA are bacteria which have naturally evolved under antibiotic selection pressure and which are known to be resistant to antibiotics including penicillins (methicillin, dicloxacillin, nafcillin, oxacillin, etc.) and cephalosporins. MU50 is additionally resistant to macrolides, quinolones and aminoglycosides.
The minimum inhibitory concentration (MIC), which inhibits the visible growth of a microorganism after an overnight incubation was determined for the following antibiotics: […]

For assay [4], the system named is Acinetobacter. Briefly: Experiment 12: replication on antibiotic agar after pulsed 400 nm irradiation. To be noted: 24 hours incubation; for C: Acinetobacter (no irradiation), replication: antibiotic 10 mg/l in MH agar; for D Acinetobacter (irradiation), replication: antibiotic 10 mg/l, 400 nm LED pulses 0.02 ms, 1 kHz, 10 minutes. It counts as cell-based. The protocol: as §1
(§4) […]. The LED power during 0.02 ms was measured to be 0.63 W on a Thorlabs power sensor with a surface area of 2.2×2.2 mm representing a power of 13 mW/cm^2.

For another assay, the system named is Pseudomonas aeruginosa. The description is as above. Format: cell-based. Conditions: 24 hours incubation; for A: Pseudomonas aeruginosa (no irradiation), replication: antibiotic 10 mg/l in MH agar; for B: Pseudomonas aeruginosa (irradiation), replication: antibiotic 10 mg/l, 400 nm LED pulses 0.02 ms, 1 kHz, 10 minutes. The protocol: as §1, §4
Assay [5] deals with Staphylococcus aureus MU500. Described as above. To be noted: 24 hours incubation; for E: Staphylococcus aureus MU500 (no irradiation), replication: antibiotic 10 mg/l in MH agar. Format: cell-based. The protocol: as §1, §2
Assay [6] concerns chemotherapy resistant stage 4 (metastatic) small cells lung carcinoma cells. Briefly: Experiment 10: metabolic activity (CellTiter-Glo) of resistant neoplastic cells after photo-activated oncological drugs. Conditions: sample 4, Topotecan 0.07 μg/ml. (In general: Cellular ATP, detected with luciferase, serves as a proxy for viable cell number.)
Assay [7] deals with PA01 Pseudamonas aeruginosa MultiR genetically modified bacteria. Briefly: Experiment 9: growth of PA01 after pulsed 400 nm photo-activation, shorter pulses. It counts as cell-based. To be noted: antibiotic concentration per the 13th table. The protocol:
(§5) In Experiments 7 to 9 the effect of some exemplary photo-activated antibiotics is tested on two different multi resistant bacterial strains:
(§6) In Experiment 8 and 9 PA01 Pseudamonas aeruginosa MultiR genetically modified bacteria were tested. This PA01 strain is genetically modified with a quinolone pump and conferring resistance to antibiotics of the quinolone group of antibiotics.
A→Pulse ON 3 ms energy 0.03 J, OFF 27 ms during 10 minutes
G→Pulse ON 1 ms energy 0.01 J, OFF 9 ms during 10 minutes
(§7) The following experimental procedure are the same for experiments 7, 8 and 9: The bacterial cells were grown in Mueller Hinton Broth in the presence of an antibiotic at a concentration according to the table below until they reached turbidity of 1 according to the McFarland Standard (=3×10^8 bacteria/ml):
(§8) For each antibiotic two patterns of pulsed exposure for photo-activation were applied and a control without exposure to radiation. For example in experiment 7 and 8, pulse ON 10 ms energy 0.1 J, OFF 90 ms during 10 minutes and pulse ON 5 ms energy 0.05 J, OFF 45 ms i.e. in both treatments a 10% ON and a 90% OFF pattern and both for a duration of 10 minutes.
(§9) Incubation for 2 to up 36 hours at 37° C. until time=t2
(§10) At time=t2 one of the antibiotics is added to obtain the same concentration of antibiotic as during the original growth phase prior to time t1=0 as listed in the table above.
(§11) Incubation for further 2 to 4 hours at 37° C. in the presence of antibiotic until time=t3.
(§12) The absorbance value correlates to the colloidal effect and the number of bacteria in the sample.
(§13) These tables below list for each bacterial sample the difference in absorption values representing the difference in the number of bacteria present in each sample by subtracting the absorption values at time t4, which is the last measurement of the growth curve presented in FIGS. 3 to 5 from the last absorption value before the treatment with light at time t3. The values of A and G represent the effect of the treatment of the bacterial samples with two different light patterns for activation of the antibiotic as described above. The values of D correspond to the control samples without photo-activation of the antibiotic: […]

Assay [8] has the same test system. Briefly: Experiment 8: growth of PA01 after pulsed 400 nm photo-activation of antibiotics. Format: cell-based. To be noted: antibiotic concentration per the 12th table. Here is the method:
as §5, §6
(§14) G→Pulse ON 5 ms energy 0.05 J, OFF 45 ms during 10 minutes
as §7, §8, §9, §10, §11, §12, §13

Assay [9] relates to MU 50 multi-resistant bacteria. Briefly: Experiment 7: growth of MU50 after pulsed 400 nm photo-activation of antibiotics. It counts as cell-based, Staphylococcus aureus. Here is the method:
as §5
In Experiment 7 MU 50 multi-resistant bacteria as described above for Experiments 1 to 3 were tested.
as §14, §7, §8, §9, §10, §11, §12, §13

Where [10] appears, read: A: 400 nm LED pulse ON 3 ms energy 0.03 J, OFF 27 ms during 10 minutes.
Setting [11] is: G: 400 nm LED pulse ON 1 ms energy 0.01 J, OFF 9 ms during 10 minutes.
The mark [12] stands for this setting: A: 400 nm LED pulse ON 10 ms energy 0.1 J, OFF 90 ms during 10 minutes.
Where [13] appears, read: G: 400 nm LED pulse ON 5 ms energy 0.05 J, OFF 45 ms during 10 minutes.

Read-outs that look alike come from different tables or passages of the source.

As usually defined, the MIC is the lowest concentration found to suppress growth.

Turning to `O=C(O)c1cn(C2CC2)c2cc(N3CCNCC3)c(F)cc2c1=O` [Ciprofloxacin], the “E: Staphylococcus aureus MU500 (no irradiation), replication, second treatment” value in assay [1] is listed as “R (Bacteria can replicate after the treatment)”. For the same molecule, the “D Acinetobacter (irradiation), replication, second treatment” value with Acinetobacter [2] (irradiation) is given as “NR (No replication)”. For the same molecule, the “C: Acinetobacter (no irradiation), replication, second treatment” value in the assay on Acinetobacter [2] (no irradiation) was “R (Bacteria can replicate after the treatment)”. Further, the MIC in assay [3] is more than 16 µg/mL. Further, in the assay on Acinetobacter [4], the “C: Acinetobacter (no irradiation), replication” value is on record as “R (Bacteria can replicate after the treatment)” and the “D Acinetobacter (irradiation), replication” value is given as “NR (No replication)”. Further, in the assay on Pseudomonas aeruginosa, the “A: Pseudomonas aeruginosa (no irradiation), replication” value is on record as “R (Bacteria can replicate after the treatment)” and the “B: Pseudomonas aeruginosa (irradiation), replication” value is on record as “NR (No replication)”. Also, in assay [5], the “E: Staphylococcus aureus MU500 (no irradiation), replication” value is “R (Bacteria can replicate after the treatment)”.

In the case of `CC[C@@]1(O)C(=O)OCc2c1cc1n(c2=O)Cc2cc3c(CN(C)C)c(O)ccc3nc2-1` [Topotecan], the “cell metabolic activity (luminescence, ATP) after normalization with the controls” value is recorded as 7% in assay [6] (A: pulse ON 10 ms, 0.1 J, OFF 90 ms, 10 minutes); 52% in [6] (B: pulse ON 10 ms, 0.01-0.001 J, OFF 90 ms, 10 minutes); 100% in [6] (C: control no pulse); 100% in [6] (D: control no pulse); 47% in assay [6] (E: pulse ON 10 ms, 0.01-0.001 J, OFF 90 ms, 5 minutes); 5% in assay [6] (F: pulse ON 10 ms, 0.1 J, OFF 90 ms, 5 minutes).

As to `CC[C@H]1OC(=O)[C@H](C)[C@@H](O[C@H]2C[C@@](C)(OC)[C@@H](O)[C@H](C)O2)[C@H](C)[C@@H](O[C@@H]2O[C@H](C)C[C@H](N(C)C)[C@H]2O)[C@](C)(OC)C[C@@H](C)C(=O)[C@H](C)[C@@H](O)[C@]1(C)O` [Clarithromycin], the “difference in absorption values (595-600 nm) between t4 and t3” value (“difference in absorption values” below) in [7] (setting [10]) is listed as −0.1708; in [7] (D: control no pulse), −0.0024; in assay [7] (setting [11]), −0.0994; in assay [8] (setting [12]) it was 0.0106; in [8] (D: control no pulse), 0.1041; in assay [8] (setting [13]), −0.0396. The “difference in absorption values” value in assay [9] is reported as 0.0956; in [9] (10 min), −0.1383; in assay [9] (10 h), −0.1249. The “C: Acinetobacter (no irradiation), replication” value in the assay on Acinetobacter [4] is “R (Bacteria can replicate after the treatment)”. Besides, the “D Acinetobacter (irradiation), replication” value with Acinetobacter [4] was “R (Bacteria can replicate after the treatment)”. Moreover, the “A: Pseudomonas aeruginosa (no irradiation), replication” value in the assay on Pseudomonas aeruginosa is on record as “R (Bacteria can replicate after the treatment)”. In the assay with Pseudomonas aeruginosa, the “B: Pseudomonas aeruginosa (irradiation), replication” value is recorded as “PR (Bacteria can replicate partially)”. For the same molecule, the “E: Staphylococcus aureus MU500 (no irradiation), replication” value in assay [5] is “R (Bacteria can replicate after the treatment)”. Also, the “F: Staphylococcus aureus MU500 (irradiation), replication” value in assay [5] (antibiotic 10 mg/l, 400 nm LED pulses 0.02 ms, 1 kHz, 10 minutes) is given as “R (Bacteria can replicate after the treatment)”.

For `CO[C@H]1/C=C/O[C@@]2(C)Oc3c(C)c(O)c4c(O)c(c(/C=N/N5CCN(C)CC5)c(O)c4c3C2=O)NC(=O)/C(C)=C\C=C\[C@H](C)[C@H](O)[C@@H](C)[C@@H](O)[C@@H](C)[C@H](OC(C)=O)[C@@H]1C` [Rifampicin], the “difference in absorption values” value was −0.0808 in assay [7] (setting [10]); 0.0562 in [7] (D: control no pulse); −0.0196 in assay [7] (setting [11]); 0.0137 in assay [8] (setting [12]); 0.0679 in assay [8] (D: control no pulse); −0.0678 in assay [8] (setting [13]). The “difference in absorption values” value in [9] is −0.0542; in [9] (10 min), −0.0914; in [9] (10 h), −0.1027.
